Measurements published in patent US20110152267A1, “Compositions and Methods for Treating Hyperproliferative Disorders” (Texas Tech University System, priority 2009, published 2011).

Experiments:
[1] = system: MOLT-4 ALL leukemia cell line; assay: DIMSCAN cytotoxicity dose-response with fenretinide, with or without D-threo-PPMP (Examples A, FIGS. 6, 24-26); format: cell-based, human; conditions: 2% oxygen, D-threo-PPMP fixed 10 uM, at most doses, +96 hrs
Experimental: Cytotoxicity Assay: Cytotoxicity in cell lines was determined using a fluorescence-based assay employing digital imaging microscopy (DIMSCAN)(after Fragala, et al, Mol Cancer Ther, 6:886-897, 2007). DIMSCAN quantitates viable cells which selectively accumulate fluorescein diacetate and is capable of measuring cytotoxicity over a 4-5 log dynamic range by quantifying total fluorescence per well (which is proportional to viable, clonogenic cells) after eliminating background fluorescence using digital thresholding and eosin Y quenching. Briefly, cell lines were seeded into 96-well plates in 100 µL of complete culture medium (10-20% serum) per well. Cells were incubated overnight in 2%, 5% or 20% oxygen (room air) prior to addition of drugs in […] volumes of complete medium to various final drug concentrations in replicates of 12 wells per concentration. In assays employing D-threo-PPMP, PPMP was employed at a fixed, minimally-toxic, final concentration of 10 μM in each well. Control wells received ethanol (final concentration=0.12%-0.20%) in complete medium equivalent to the maximum final ethanol concentration of drug-treated wells. Plates were incubated at various oxygen concentrations to simulate physiological hypoxia (i.e., 2% oxygen=typical solid tumor oxygen levels; 5%=bone marrow oxygen levels for leukemias; 20% room air=supraphysiological oxygen for comparison with typical laboratory culture conditions). Plates were assayed at 3-4 days after initiating drug exposure depending on the growth properties of each cell line, to allow for maximum cell death and outgrowth of surviving cells. To measure cytotoxicity, FDA (stock solution of 1 mg/ml in DMSO) was added, in 50 µL of complete medium per well, to a final concentration of 10 µg/ml. The plates were incubated for an additional 15-30 minutes at 37 C and then 30 µL of eosin Y (0.5% in normal saline) was added per well. Total fluorescence of each well was then measured using digital imaging microscopy.
FIGS. 1 to 26 illustrate the effect (Examples A1 through A26) of the claimed invention and were carried out using the procedures disclosed herein.

[2] = system: MOLT-4 acute lymphoblastic leukemia cell line; assay: DIMSCAN cytotoxicity, fenretinide + L-threo-sphinganines 3:1 (Example B20); format: cell-based, human
Experimental: (§1) Cytotoxicity Assay—Once again, cytotoxicity is determined using the DIMSCAN assay system (R. Proffitt et al., Cytometry 24, 204-213 (1996); T. Frgala et al., Mol Cancer Ther. 6:886-97, 2007). The system employs digital imaging microscopy to quantify viable cells, which selectively accumulate fluorescein diacetate to become brightly fluorescent. The system is capable of measuring cytotoxicity over a 4-5 log dynamic range by quenching the residual fluorescence of dead and dying cells with eosin Y and quantifying the total fluorescence of viable cells using digital thresholding. Measured fluorescence is directly proportionate to the number of viable cells. A comparison of the total fluorescence of a drug-treated cell population to the fluorescence of a similar number of untreated cells yields a survival fraction. In brief, 2000 to 10,000 cells/well (depending on size and growth rates) are replicate plated into 60 wells of a 96-well tissue culture plate in 0.1 mL of whole medium and allowed to attach overnight. Drug(s) are then added in 0.05 mL of whole medium to the final concentrations indicated. Drugs (fenretinide, and various chain length L-threo-sphinganines) were tested both as single agents and in a 3:1 ratio of fenretinide:sphinganine. C18-L-threo-sphinganine, or “safingol,” was also tested and results shown for reference. There are 12 wells treated per drug concentration. Twelve wells receive drug vehicle-only to the appropriate final concentration and serve as controls for the plate. Cells are incubated for 96 hours at 37° C. in ambient air with 5% CO2. Fluorescein diacetate is then added to each well in 0.05 mL media to a final concentration of 8 microgram/mL. Cells are incubated for a further 15 minutes at 37° C. and 0.03 mL of 0.5% eosin Y is added to each well. Total fluorescence of viable cells is then measured by digital imaging microscopy. Results were graphed as the ratio of the fluoresecence of drug-treated wells to non-drug treated control wells (i.e., Survival Fraction). All tests were performed at least twice. Representative results are shown.
(§2) The Combination Index (CI) is a term to describe mathematical modeling of the pharmacologic effects on cytotoxicity (cell death) of two drugs in combination based. Cytotoxic “synergy” is defined as a cell death affect which is greater than would be expected from a simple product of the single agent cytotoxicities alone (i.e. an “additive” effect). By Chou-Talalay analysis, a CI<0.9 on a Fraction Affected (“Fa”, i.e. fraction of cells killed) indicates synergy, with smaller numbers indicating greater synergy; a CI of 0.9-1.1 signifies an additive or near-additive effect; and a CI>1.1 means the drug combination is antagonistic.
(§3) Fenretinide and L-threo-sphinganines tested in human acute lymphoblastic leukemia (pediatric ALL, a blood cancer) cell lines, COG-LL-317 and MOLT-4.

[3] = system: COG-LL-317 acute lymphoblastic leukemia cell line; assay: as above; format: cell-based, human
Experimental: as §1, §2, §3

[4] = system: LNCaP prostate adenocarcinoma cell line; assay: DIMSCAN cytotoxicity, fenretinide + L-threo-sphinganines 3:1 (Example B16); format: cell-based, human; conditions: LNCaP.FGC
Experimental: as §1, §2
Fenretinide and L-threo-sphinganines tested in human prostate adenocarcinoma (prostate cancer) cell line, LNCaP.

[5] = system: CRL-2091 normal human fibroblast cell line; assay: DIMSCAN cytotoxicity, fenretinide + L-threo-sphinganines 3:1 (Example B1); format: cell-based; conditions: CRL-2091, 20% O2, 96 h
Experimental: as §1, §2
(§4) Fenretinide and L-threo-sphinganines tested in normal human fibroblast (normal skin cell) cell lines, CRL-2091 and CRL-2076.

[6] = system: CRL-2076 normal human fibroblast cell line; assay: as above; format: cell-based; conditions: CRL-2076, 20% O2, 96 h
Experimental: as §1, §2, §4

[7] = 4-HPR 3 μM + L-threo-sphinganine 1 μM
[8] = 4-HPR 6 μM + L-threo-sphinganine 2 μM
[9] = 4-HPR 9 μM + L-threo-sphinganine 3 μM
[10] = 4-HPR 12 μM + L-threo-sphinganine 4 μM
[11] = 4-HPR 1.5 μM + L-threo-sphinganine 0.5 μM

| Structure (SMILES) | CI [2, 7] | Fa [2, 7] | CI [2, 8] | Fa [2, 8] | CI [2, 9] | Fa [2, 9] | Fa [2, 10] | CI [3, 7] | Fa [3, 7] | CI [3, 8] | Fa [3, 8] | Fa [3, 9] | Fa [3, 10] | CI [4, 11] | Fa [4, 11] | CI [4, 7] | Fa [4, 7] | CI [4, 8] | Fa [4, 8] | CI [4, 9] | also measured |
| --- | --- | --- | --- | --- | --- | --- | --- | --- | --- | --- | --- | --- | --- | --- | --- | --- | --- | --- | --- | --- | --- |
| CCCCCCCCCCCCCCCCC[C@H](O)[C@@H](N)CO [C20, (2S,3S)-2-amino-1,3-icosanediol] | 0.9 | 0.878 | 0.8 | 0.996 | 0.8 | 0.999 | 1 | 0.2 | 0.9999 | 0.3 | 1 | 1 | 1 | 0.7 | 0.812 | 0.4 | 0.987 | 0.7 | 0.993 | 0.8 | C.I. of D-threo-PPMP with fenretinide+L-threo-sphinganine (three drug combination) [1]: < 1; Fa [4, 9]: 0.999 |
| CCCCCCCCCCCCCCCC[C@H](O)[C@@H](N)CO [C19, (2S,3S)-2-amino-1,3-nonadecanediol] | 1.0 | 0.797 | 0.8 | 0.996 | 0.8 | 0.999 | 1 | 0.8 | 0.9980 | 0.4 | 0.9999 | 1.0000 | 1.0000 | 1.0 | 0.697 | 0.5 | 0.980 | 0.5 | 0.999 | 0.2 | C.I. of D-threo-PPMP with fenretinide+L-threo-sphinganine (three drug combination) [1]: < 1; Fa [4, 9]: 1.000 |
| CCCCCCCCCCCCCCC[C@H](O)[C@@H](N)CO [C18, (2S,3S)-2-amino-1,3-octadecanediol, reference compound] | 0.9 | 0.829 | 0.7 | 0.998 | 0.8 | 0.999 | 1 | 0.8 | 0.998 | 0.6 | 0.9994 | 0.9996 | 1 | 0.9 | 0.752 | 0.3 | 0.971 | 0.1 | 0.998 | 0.1 | CI [3, 9]: 0.8; Fa [4, 9]: 0.999; CI (Combination Index) [5, 11]: >1; Fa (fraction affected) [5, 11]: 0.16; CI (Combination Index) [5, 7]: >1; Fa (fraction affected) [5, 7]: 0.29; CI (Combination Index) [5, 8]: >1; Fa (fraction affected) [5, 8]: 0.29; CI (Combination Index) [5, 9]: 0.33; Fa (fraction affected) [5, 9]: 0.73; CI (Combination Index) [6, 11]: >1; Fa (fraction affected) [6, 11]: 0.20; CI (Combination Index) [6, 7]: 1; Fa (fraction affected) [6, 7]: 0.11; CI (Combination Index) [6, 8]: >1; Fa (fraction affected) [6, 8]: 0.35; CI (Combination Index) [6, 9]: >1; Fa (fraction affected) [6, 9]: 0.94 |
